Legend:
[1] = tested on: activated partial thromboplastin time; conditions: cited from earlier work
[2] = tested on: thrombin clotting time in human plasma; assay: Thrombin clotting time assay, dabigatran standard curve in human plasma; type: biochemical
Description: Briefly human plasma is obtained by taking whole blood into 3.13% sodium citrate. This is then centrifuged to obtain platelet free plasma and transferred to a separate tube and frozen until required on the day of the assay. Plasma is thawed at 37° C. on the day of the assay.
The thrombin clotting time is performed as follows. First thrombin is diluted to manufacturer's specification (3 IU/mL thrombin) in the buffer provided (Dade Behring Test kit) and prewarmed to 37° C. It is used within 2 hrs of being prepared. All assays were performed on a commercially available CL4 clotting machine (Behnk Electronics, Norderstadt, Germany). Fifty μL of plasma is pipetted into provided cuvettes with a magnetic stirrer and allowed to stir for 2 min in the well preheated to 37° C. in the CL4 machine. At this point 100 μL of the thrombin solution is added and the time required for the plasma sample to clot is recorded automatically by the CL4.

Row | Structure (SMILES) | prolongation of the activated partial thromboplastin time compared with dabigatran [1] | thrombin clotting time ([2]; 200 nM dabigatran preincubated with human plasma) [s] | elevation in clotting time over baseline ([2]; 200 nM dabigatran, human plasma) [fold] | increase in clotting time over baseline ([2]; 500 nM dabigatran, human plasma) [fold]
1 | Cn1c(CNc2ccc(C(=N)N)cc2)nc2cc(C(=O)N(CCC(=O)OC3OC(C(=O)O)C(O)C(O)C3O)c3ccccn3)ccc21 (stereo not shown) [1-O-acylglucuronide] | equipotent prolongation | – | – | –
2 | Cn1c(CNc2ccc(C(=N)N)cc2)nc2cc(C(=O)N(CCC(=O)O)c3ccccn3)ccc21 [dabigatran, N-[2-(4-Amidinophenylaminomethyl)-1-methyl-1H-benzimidazol-5-ylcarbonyl]-N-(2-pyridyl)-beta-alanine] | – | 51 | ~5 | ~10

— US20140377265A1, “ANTICOAGULANT ANTIDOTES” (BOEHRINGER INGELHEIM INTERNATIONAL GMBH, priority 2011, published 2014)
